Data as given in patent publication US20060063753A1 (priority 2002, published 2006).

How the values were obtained:
[1] = tested on: emesis (retching and vomiting); experiment: emesis caused by opioid (morphine) and other proemetic agents (cisplatin) in ferrets; format: in vivo; conditions: i.p. pre-dosing, morphine 0.125 mg/kg s.c. or cisplatin 5 mg/kg i.p.
Description: Male ferrets (0.9- 1.7 kg) obtained from Leeds University were housed in pairs at 22±1° C. and had free access to food (SDS Diet ‘C’ (E), Special Diet Services, UK) and water. They were housed under artificial lighting with lights on between 07:00 and 21:00 hours. For experimental use, animals were removed from their holding cages and placed individually into observation cages. The animals were allowed free access to water and food. The animals were divided into separate groups of 4 animals per group. Animals were frequently observed throughout the experiments by a trained technician to ensure that the animals remained in good health. In addition, animal behaviour was video recorded for subsequent analysis of emesis (see Rudd et al., 1994). Emesis was characterized by rhythmic abdominal contractions which were either associated with the oral expulsion of solid or liquid material from the gastrointestinal tract (i.e. vomiting) or not associated with the passage of material (i.e. retching movements). The number of highly distinctive abdominal contractions was counted. (+)-Nefopam was dissolved in saline and administered in a volume of 1 ml/kg. […] Observations were recorded over a 4 hr period post-morphine dosing and scored for incidences of retching and vomiting. […] Observations were recorded over the 72 hr period post-cisplatin dosing and scored for incidences of retching and vomiting.

opiate receptors = conditions: cited from earlier work
[2] = order of potency (+)-nefopam > (±)-nefopam > (−)-nefopam; cited from earlier work
dopamine uptake = conditions: order of potency (+)-nefopam > (±)-nefopam > (−)-nefopam; cited from earlier work
norepinephrine uptake = conditions: order of potency (+)-nefopam > (±)-nefopam > (−)-nefopam; cited from earlier work
serotonin-uptake = conditions: order of potency (+)-nefopam > (±)-nefopam > (−)-nefopam; cited from earlier work

Compound	effect on emesis caused by opioid and other recognised proemetic agents [1]	antinociception in animal models of pain and in humans (opiate receptors; animal models of pain and humans)	blockade of antinociception by nalaxone (opiate receptors; nalaxone)	analgesic properties, potency compared with (−)-nefopam [2]	dopamine uptake inhibitory properties, potency compared with (−)-nefopam (dopamine uptake)	norepinephrine uptake inhibitory properties, potency compared with (−)-nefopam (norepinephrine uptake)	serotonin-uptake inhibitory properties, potency compared with (−)-nefopam (serotonin-uptake)
CN1CCOC(c2ccccc2)c2ccccc2C1 (racemic) [nefopam]	able to prevent or diminish emesis	induce antinociception	not blocked				
CN1CCO[C@@H](c2ccccc2)c2ccccc2C1 [(+)-nefopam]				more potent	more potent	more potent	more potent
